Assay results from patent publication US20090076029A1 (Palatin Technologies, Inc., priority 2007, published 2009).
Read-outs that look alike come from different tables or passages of the source.

Columns and labels:
hMC3-R [1] = biological target: T1, hMC3-R; assay: Competitive inhibition assay using [I125]-NDP-α-MSH, hMC3-R membranes; format: binding, human; conditions: for Ki: read-out: Ki (nM) (NDP-α-MSH) MC3-R; for Inhibition at 1 μM (NDP-α-MSH) MC3-R: 1 μM compound
T1 construct: expressed in transfected cells; host or cells: HEK-293
Outline: (§1)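 Membranes from HEK-293 cells expressing hMC3-R, hMC4-R or hMC5-R, or from mouse B-16 melanoma cells (MC1-R), with 0.2–0.4 nM [125I]-NDP-α-MSH in 50 mM HEPES pH 7.2 with Mg2+, Ca2+, K+. Test compound typically 1 μM; 90 min, room temperature; filtration, gamma counting. Percent inhibition vs specific binding (1 μM α-MSH), triplicate mean, negatives as 0%.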

hMC5-R [2] = test system: T2, hMC5-R; assay: cAMP functional assay, HEK-293 cells expressing hMC5-R; format: cell-based, human; conditions: cAMP assay at 1 μM
T2 construct: expressed in transfected cells; host or cells: HEK-293
Method: (§2) General method for EC50 determination in functional activity assay. Functional evaluation of compounds at melanocortin receptors was performed by measuring the accumulation of intracellular cAMP in HEK-293 cells expressing hMC3-R, hMC4-R or hMC5-R, and in B-16 mouse melanoma cells expressing MC1-R. Cells suspended in Earle's Balanced Salt Solution containing 10 mM HEPES (pH 7.5), 5 mM MgCl2, 1 mM glutamine, 0.1% albumin and 0.6 mM 3-isobutyl-1-methyl-xanthine, a phosphodiesterase inhibitor, were plated in 96 well plates at a density of 0.5×10^5 cells per well. Cells were incubated with the test compounds in the presence or absence of α-MSH for 1 hour at 37° C. cAMP levels in the cell lysates were measured using an EIA kit (Amersham). Data analysis and EC50 values were determined using nonlinear regression analysis with Prism Graph-Pad software.
(§3) Functional status. The agonist/antagonist status with respect to MC1-R, MC-3R, MC4-R and MC5-R of certain compounds of the invention was determined.

MC1-R [3] = test system: T3, MC1-R; assay: cAMP functional assay, B-16 mouse melanoma cells expressing MC1-R; format: cell-based; conditions: cAMP assay at 1 μM
T3 construct: from B-16 mouse melanoma cells (containing MC1-R); endogenous in cells; host or cells: B-16 mouse melanoma cells
Method: as §2, §3

hMC5-R [4] = biological target: T2, hMC5-R; assay: Competitive inhibition assay using [I125]-NDP-α-MSH, hMC5-R membranes; format: binding, human; conditions: for Ki: read-out: Ki (nM) (NDP-α-MSH) MC5-R; for Inhibition at 1 μM (NDP-α-MSH) MC5-R: 1 μM compound
Outline: as §1

MC1-R [5] = biological target: T4, MC1-R; assay: Competitive inhibition assay using [I125]-NDP-α-MSH, MC1-R membranes; format: binding, mouse
T4 construct: other: 1 μM compound

hMC4-R [6] = test system: T5, hMC4-R; assay: cAMP functional assay in HEK-293 cells expressing MC4-R (agonist, neutral antagonist/Schild); format: cell-based, human; conditions: for functional status (pAg, Ag, Antag, Inactive): MC4-R, Table 1; for intrinsic activity at MC4-R: NDP-α-MSH maximal stimulation = 1.0; for functional status at MC4-R: mostly at 1 μM
T5 construct: expressed in transfected cells; host or cells: HEK-293
Outline: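 Cells in EBSS/HEPES pH 7.5 with 0.3 mM IBMX, exposed to compound (0.05-5000 nM, 1% DMSO) for 1 h at 37 °C; cAMP by EIA, EC50 by nonlinear regression. Antagonism: 30 min compound pre-incubation, then 1 nM NDP-α-MSH for 1 h; Schild analysis over 0.005-5000 nM agonist gives pA2.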

hMC4-R [7] = test system: T5, hMC4-R; format: binding, human; conditions: for Inhibition at 1 μM (AgRP) MC4-R: 1 μM compound
Outline: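 Membranes from hMC4-R-expressing cells incubated 1 h at 37 °C with 0.2 nM [I^125]-AgRP (83-132) and increasing compound in 25 mM HEPES pH 7.5, 100 mM NaCl, 2 mM CaCl2, 2 mM MgCl2, 0.3 mM 1,10-phenanthroline, 0.5% BSA. Filtration, gamma counting; specific binding kept ≤10% of added counts.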

hMC4-R [8] = biological target: T5, hMC4-R; assay: Competitive inhibition assay using [I125]-NDP-α-MSH, hMC4-R membranes; format: binding, human; conditions: for Inhibition at 1 μM (NDP-α-MSH) MC4-R: 1 μM compound
MC4-R [9] = test system: T6, MC4-R; assay: Assay for inverse agonist, HEK-293 cells expressing MC4-R; format: cell-based; conditions: FIG. 3
T6 construct: expressed in transfected cells; host or cells: HEK-293
Method: Assay for inverse agonist. […] The experimental protocol was essentially as described above. The cells were exposed to the test compounds over a concentration range of 0.05 nM to 5000 nM for 1 hour at 37° C. AgRP (83-132) was used as the reference inverse agonist. Data analysis and EC50 values were determined by using nonlinear regression analysis with the Prism Graph-Pad software.

hMC3-R [10] = test system: T1, hMC3-R; assay: cAMP functional assay, HEK-293 cells expressing hMC3-R; format: cell-based, human; conditions: cAMP assay at 1 μM
Method: as §2, §3

MC1-R [11] = assay: Competitive inhibition assay using [I125]-NDP-α-MSH, MC1-R membranes; format: binding, mouse; conditions: for Inhibition at 1 μM (NDP-α-MSH) MC1-R: 1 μM compound
MC4-R [12] = test system: T6, MC4-R; format: cell-based; conditions: HEK-293 cells expressing MC4-R
Source text: Assay for Antagonists of AgRP in HEK-293/MC4-R Cells stimulated with Forskolin. […] AgRP causes a decrease in the basal adenylyl cyclase activity only to the extent of 40-50%. Even though the AgRP-induced decrease in cAMP levels is substantial, conventional assay methods, such as those described above, have limited sensitivity, precluding detecting small changes that are reversed by certain antagonists to AgRP. This limitation was circumvented by the use of a non-specific activator, forskolin, which directly activates adenylyl cyclase activity and raises cyclic AMP levels. Forskolin, a cell permeable diterpenoid initially isolated from Coleus forskohlii, has the ability to stimulate adenylyl cyclase activity and increase intracellular cAMP, thus activating cAMP-dependent protein kinase and other cAMP receptor proteins. See, e.g., Seamon, K. B., Daly, J. W. Forskolin: a unique diterpene activator of cyclic AMP-generating system. J. Cyclic Nucleotide Res. 7(4):201-24, 1981; Fradkin, J. E., Cook, G. H., Kilhoffer, M. C., Wolff, J. Forskolin stimulation of thyroid adenylate cyclase and cyclic 3′,5′-adenosine monophosphate accumulation. Endocrinology 111 (3):849-56, 1982; Barber, R., Goka, T. J. Adenylate cyclase activity as a function of forskolin concentration. J. Cyclic Nucleotide Protein Phosphor. Res. 10(1):23-9, 1985; and Laurenza, A., Sutkowski, E. M., Seamon, K. B. Forskolin: a specific stimulator of adenylyl cyclase or a diterpene with multiple sites of action? Trends Pharmacol. Sci. 10(11):442-7, 1989. […] The EC50 value was about 5 μM. AgRP inhibited the forskolin-induced response by 65% at a concentration of 10 nM. The difference in forskolin stimulated response and the inhibition due to AgRP in the cAMP levels was exploited to screen compounds for their ability to antagonize AgRP inhibition and […] levels of cAMP accumulation.
Experimental details for assays included incubating cells with the test compound in the presence of the inverse agonist AgRP with the extent of reversal of the AgRP effect measured by following the increase in the levels of intracellular cAMP. HEK-293 cells expressing MCR-4 were suspended in 10 mM HEPES/Earle's Balanced Salt Solution at pH 7.5 with the phosphodiesterase inhibitor IBMX, and pre-incubated for 30 minutes with the compounds (0.5-5000 nM). The cells were then treated with AgRP (10 nM) and incubated further for 30 minutes. The cells were then treated with forskolin (10 μM) and incubated for an additional 60 minutes. Cells were lysed and cAMP was measured by EIA kit (Amersham).

[13] = MC4-R membranes, Table 1, read-out: Ki (nM) I125-AgRP
[14] = MC4-R membranes, Table 1, read-out: Ki (nM) I125-NPD-α-MSH
[15] = read-out: Ki (nM) (NDP-α-MSH) MC4-R

Molecule	Ki (hMC3-R [1])	Ki (hMC5-R [4])	functional status (pAg, Ag, Antag, Inactive) (hMC4-R [6])	intrinsic activity at MC4-R (hMC4-R [6])	functional status at MC4-R (hMC4-R [6]; cAMP assay)	Inhibition at 1 μM (AgRP) MC4-R (hMC4-R [7])	Ki (hMC4-R [7]; [13])	Ki (hMC4-R [7]; read-out: Ki (nM) (AgRP) MC4-R)	Ki (hMC4-R [8]; [14])	Ki (hMC4-R [8]; [15])	Inhibition at 1 μM (NDP-α-MSH) MC3-R (hMC3-R [1])	Inhibition at 1 μM (NDP-α-MSH) MC5-R (hMC5-R [4])	Ki (MC1-R [11])	Inhibition at 1 μM (NDP-α-MSH) MC1-R (MC1-R [11])	Inhibition at 1 μM (NDP-α-MSH) MC4-R (hMC4-R [8])	further results
CC(=O)N[C@H](Cc1ccc2ccccc2c1)C(=O)N1C[C@@H](CC(C)C)N(CCc2ccc3ccccc3c2)C[C@@H]1CCCNC(=N)N [Example 13, N-{2-[2(S)-(3-Guanidino-propyl)-5(R)-isobutyl-4(2-naphthalen-2-yl-ethyl)-piperazin-1-yl]-1(R)-naphthalen-2-ylmethyl-2-oxo-ethyl}-acetamide]	474 nM	378 nM	Antag (“Antag” means antagonist)	no intrinsic activity	antagonist	100%	3.7 nM	3.7 nM	6 nM	6 nM						functional status at MC5-R (hMC5-R [2]): partial agonist (intrinsic activity between 0.1 (10%) and 0.7 (70%) is classified as a partial agonist); functional status at MC1-R (MC1-R [3]): no intrinsic activity (intrinsic activity below 0.1 (10%) is classified as inactive or having no intrinsic activity); Ki (MC1-R [5]): 4620 nM; Inhibition at 1 μM (NDP-α-MSH) MC1-R (MC1-R [5]; 1 μM compound): 0%; pA2 value at MC4-R (hMC4-R [6]; Schild plot vs NDP-α-MSH): 7.3; inverse agonism (basal cAMP) (MC4-R [9]): inverse agonism; functional status at MC3-R (hMC3-R [10]): no intrinsic activity (intrinsic activity below 0.1 (10%) is classified as inactive or having no intrinsic activity)
NCCCC[C@H]1C(=O)N(CCc2ccc3ccccc3c2)CCN1C(=O)[C@@H](Cc1ccc(Cl)cc1Cl)NC(=O)/C=C/c1ccccc1 [Example 21, (E)-N—[(R)-2-[(S)-2-(4-Amino-butyl)-4-(2-naphthalen-2-yl-ethyl)-3-oxo-piperazin-1-yl]-1-(2,4-dichloro-benzyl)-2-oxo-ethyl]-3-phenyl-acrylamide]	648 nM	398 nM	pAg (“pAg” means partial agonist)	0.2		100%	5 nM	5 nM	6 nM	6 nM	46%	60%	502 nM	30%	96%	EC50 (hMC4-R [6]; cAMP assay, read-out: EC50 (nM) at MC4-R): 112 nM; attenuation of binding of α-MSH and AgRP to MC4-R (hMC4-R [8]; both ligands (NDP-α-MSH and AgRP), summary): attenuate the binding of both α-MSH and AgRP to MC4-R
N=C(N)NCCC[C@H]1CN(C(=O)Cc2ccc3ccccc3c2)[C@H](Cc2ccccc2)CN1C[C@H](N)Cc1ccc2ccccc2c1 [Example 30, N-{3-[1-[2(R)-Amino-3-naphthalen-2-yl-propyl]-5(R)-benzyl-4-(2-naphthalen-2-yl-acetyl)-piperazin-2(S)-yl]-propyl}-guanidine]	387 nM	178 nM	Inactive		inactive		90 nM	90 nM	55 nM	61 nM	49%	87%	2770 nM	32%	92%	
Forskolin [reference compound]																total response relative to NDP-α-MSH (MC4-R [12]): three-fold higher; EC50 (MC4-R [12]; read-out: EC50 value (cAMP stimulation)): ~5000 nM
